Data: publication PMC8175309, “Translational CNS Steady-State Drug Disposition Model in Rats, Monkeys, and Humans for Quantitative Prediction of Brain-to-Plasma and Cerebrospinal Fluid-to-Plasma Unbound Concentration Ratios” (The AAPS Journal, 2021)
Like-named read-outs stand apart in the source and are kept apart here. Values belong to the molecule of their own block, whether it stands above or below them.

How the values were obtained:
BCRP = target: T1, BCRP (Homo sapiens, UniProt Q9UNQ0); experiment: Transcellular transport across MDCK-BCRP cell monolayers (efflux ratio); details: dog, pH 7.4
T1 sequence (Q9UNQ0 1-655): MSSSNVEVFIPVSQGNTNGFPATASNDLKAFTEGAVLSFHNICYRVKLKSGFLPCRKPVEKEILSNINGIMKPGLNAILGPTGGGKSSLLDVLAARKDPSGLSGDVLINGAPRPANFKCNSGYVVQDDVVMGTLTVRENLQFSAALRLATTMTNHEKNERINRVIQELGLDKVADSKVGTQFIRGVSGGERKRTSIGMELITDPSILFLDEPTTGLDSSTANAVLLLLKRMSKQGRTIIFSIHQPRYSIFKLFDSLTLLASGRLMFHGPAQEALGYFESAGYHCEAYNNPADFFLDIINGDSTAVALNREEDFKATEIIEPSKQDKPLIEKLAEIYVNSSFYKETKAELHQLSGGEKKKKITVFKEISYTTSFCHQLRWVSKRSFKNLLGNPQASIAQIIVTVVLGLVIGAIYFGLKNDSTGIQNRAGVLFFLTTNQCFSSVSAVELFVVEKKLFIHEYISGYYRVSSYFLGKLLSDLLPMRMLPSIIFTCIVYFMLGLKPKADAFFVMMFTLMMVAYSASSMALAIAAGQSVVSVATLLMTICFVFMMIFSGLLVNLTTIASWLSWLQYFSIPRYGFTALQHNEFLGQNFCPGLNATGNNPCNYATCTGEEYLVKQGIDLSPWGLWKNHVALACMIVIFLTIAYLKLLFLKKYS
Method: (§1) To the compounds available internally, in vitro efflux ratios for MDR1 and BCRP were determined by the following procedure (Supplemental Table 2). Test compound stock solutions in dimethyl sulfoxide (DMSO) were diluted in transport buffer (Hanks’ balanced salt solution (HBSS) with 10 mM HEPES, pH 7.4) to a concentration of 1 μM (DMSO < 1%) and applied to the apical or basolateral side of a cell monolayer derived from Madin-Darby canine kidney (MDCK)-MDR1 and MDCK-BCRP cells. Permeation of the test compounds from apical to basolateral (A to B) direction or B to A direction was measured in duplicate. The plate was incubated for 1 h in a CO2 incubator at 37±1°C with 5% CO2 at saturated humidity without shaking. In addition, the efflux ratio of each compound was also determined. Test and reference compounds were quantified by LC-MS/MS analysis based on the peak area ratio of analyte/internal standard.
(§2) The apparent permeability coefficient Papp (cm/s) was calculated by using Eq. 1: 1 Papp=dCr/dt×Vr/A×C0 where dCr/dt is the cumulative concentration of the compound in the receiver chamber as a function of time (μM/s); Vr is the volume of the solution in the receiver chamber (0.075 mL on the apical side, 0.25 mL on the basolateral side); A is the surface area for transport, i.e., 0.0804 cm^2 for the area of the monolayer; and C0 is the initial concentration (μM) in the donor chamber.
(§3) The efflux ratio was calculated using Eq. 2: 2 Efflux ratio=Papp,BtoA/Papp,AtoB

MDR1 = MDR1 (Homo sapiens, UniProt P08183); experiment: in vitro; details: dog, MDCK-MDR1, pH 7.4
Method: as §1, §2, §3

[1] = cited from earlier work
[2] = cited from earlier work; remark: listed apart in the source
in vivo [3] = details: for Kp uu at 6 h: cynomolgus monkey, in vivo
Method: Monkey experiments were conducted internally or at the Drug Safety Research Laboratories in Shin Nippon Biomedical Laboratories via consignment to Axcelead Drug Discovery Partners. […] Detailed dosage regimen for each compound is summarized in Supplemental Table 3. […] Each cassette was assigned to a separate group of monkeys. The vehicle was saline or a mixture of dimethylacetamide and 1,3-butanediol (1:1, v/v). At the end of the 6-h infusion or 1 h after intravenous bolus administration, the monkeys were anesthetized, and whole blood, CSF, and whole brain were collected. Blood was collected using the anticoagulant, heparin sodium, and immediately centrifuged; the plasma was transferred to polypropylene tubes. Then, ketamine hydrochloride (50 mg/mL; 0.2 mL/kg; 10 mg/kg) was intramuscularly administered. CSF was collected after lumbar puncture using a spinal needle (22–25G) and a syringe pre-wetted with 10% CHAPS solution to prevent adsorption of compounds to all the equipment during pretreatment. CSF samples were immediately centrifuged, and the supernatant layers were transferred to polypropylene tubes. […] After collecting the cerebellum, hippocampus, and cerebral cortex from the whole brain, these were washed with cold saline, weighed, and homogenized immediately in 4 volumes of ice-cold 100 mmol/L sodium phosphate buffer. All samples were stored at –80°C until analysis by LC-MS/MS. Each sample (50 μL) was mixed with the working solution (the mixture of dimethyl sulfoxide and acetonitrile (2:8, v/v)), and protein was precipitated by the addition of 150 μL acetonitrile containing the internal standards (5 ng/mL alprenolol and diclofenac). After centrifugation at 5,250 rpm and 4°C for 5 min, the supernatant (150 μL) was transferred to a polypropylene 96-well plate (Corning; Corning, NY, USA) and completely evaporated under a gentle stream of N2. The residue was reconstituted in dilution solution (mobile phase A/B (7:3, v/v)), and the supernatant was analyzed by LC-MS/MS.
Each sample (50 μL) was mixed with the working solution (the mixture of dimethyl sulfoxide and acetonitrile (2:8, v/v)), and the protein was precipitated by adding 150 μL acetonitrile containing internal standards (5 ng/mL alprenolol and diclofenac). After centrifugation at 5250 rpm and 4°C for 5 min, the supernatant (150 μL) was transferred to a polypropylene 96-well plate (Corning) and completely evaporated under a gentle stream of N2. The residue was reconstituted in mobile phase A/B (7:3, v/v)), and the supernatant was analyzed by LC-MS/MS. API5000 and QTRAP5500 (AB SCIEX, Framingham, MA, USA) equipped with Ultra-Fast Liquid Chromatography (Shimadzu, Kyoto, Japan) were used for determination of drug concentrations. Reversed-phase chromatography was performed using Shim-pack XR ODS (2.2 μm, 2.0×30 mm). Mobile phase A consisted of 10 mM ammonium formate with 0.2% formic acid, and mobile phase B contained acetonitrile with 0.2% formic acid. […] The mass spectrometer was operated in the positive ionization mode with multiple reaction monitoring (MRM). The MRM parameters (Q1 ion, Q3 ion, DP, EP, CE, and CXP) for monitoring the compounds are shown in Supplemental Table 4. Data acquisition and processing were performed using Analyst 1.6.2 (AB SCIEX, Framingham, MA, USA).
(§4) To perform correlation analyses between the observed Kp,uu,brain and Kp,uu,CSF, and the model-based prediction of Kp,uu,brain and Kp,uu,CSF, data from literature information were integrated into the internally obtained data for these assessments (Supplemental Table 2) ([17],[22]–[24],[27]–[33]). When only the total concentrations in plasma, CSF, and brain were available, the total concentration ratio in plasma to CSF or brain (Kp,CSF or Kp,brain, respectively) was estimated, followed by calculation of Kp,uu,CSF or Kp,uu,brain based on Eqs.

[4] = monkey, cited from earlier work
in vivo [5] = details: in vivo; for Kp uu: rat
Method: The CSF samples collected from cisterna magna in rats were stored at –80°C until analysis by liquid chromatography-tandem mass spectrometry (LC-MS/MS). Before performing the LC-MS/MS analysis, these samples were thawed on ice and mixed with three volumes of acetonitrile. The acetonitrile mixtures were vortexed and centrifuged, and the supernatant was collected. After dilution with mobile phase A (a mixture of 10 mM ammonium formate and formic acid at 100:0.2 (v/v)), the supernatant was injected into the LC-MS/MS system.
as §4

MDR1, sequence (P08183 whole entry): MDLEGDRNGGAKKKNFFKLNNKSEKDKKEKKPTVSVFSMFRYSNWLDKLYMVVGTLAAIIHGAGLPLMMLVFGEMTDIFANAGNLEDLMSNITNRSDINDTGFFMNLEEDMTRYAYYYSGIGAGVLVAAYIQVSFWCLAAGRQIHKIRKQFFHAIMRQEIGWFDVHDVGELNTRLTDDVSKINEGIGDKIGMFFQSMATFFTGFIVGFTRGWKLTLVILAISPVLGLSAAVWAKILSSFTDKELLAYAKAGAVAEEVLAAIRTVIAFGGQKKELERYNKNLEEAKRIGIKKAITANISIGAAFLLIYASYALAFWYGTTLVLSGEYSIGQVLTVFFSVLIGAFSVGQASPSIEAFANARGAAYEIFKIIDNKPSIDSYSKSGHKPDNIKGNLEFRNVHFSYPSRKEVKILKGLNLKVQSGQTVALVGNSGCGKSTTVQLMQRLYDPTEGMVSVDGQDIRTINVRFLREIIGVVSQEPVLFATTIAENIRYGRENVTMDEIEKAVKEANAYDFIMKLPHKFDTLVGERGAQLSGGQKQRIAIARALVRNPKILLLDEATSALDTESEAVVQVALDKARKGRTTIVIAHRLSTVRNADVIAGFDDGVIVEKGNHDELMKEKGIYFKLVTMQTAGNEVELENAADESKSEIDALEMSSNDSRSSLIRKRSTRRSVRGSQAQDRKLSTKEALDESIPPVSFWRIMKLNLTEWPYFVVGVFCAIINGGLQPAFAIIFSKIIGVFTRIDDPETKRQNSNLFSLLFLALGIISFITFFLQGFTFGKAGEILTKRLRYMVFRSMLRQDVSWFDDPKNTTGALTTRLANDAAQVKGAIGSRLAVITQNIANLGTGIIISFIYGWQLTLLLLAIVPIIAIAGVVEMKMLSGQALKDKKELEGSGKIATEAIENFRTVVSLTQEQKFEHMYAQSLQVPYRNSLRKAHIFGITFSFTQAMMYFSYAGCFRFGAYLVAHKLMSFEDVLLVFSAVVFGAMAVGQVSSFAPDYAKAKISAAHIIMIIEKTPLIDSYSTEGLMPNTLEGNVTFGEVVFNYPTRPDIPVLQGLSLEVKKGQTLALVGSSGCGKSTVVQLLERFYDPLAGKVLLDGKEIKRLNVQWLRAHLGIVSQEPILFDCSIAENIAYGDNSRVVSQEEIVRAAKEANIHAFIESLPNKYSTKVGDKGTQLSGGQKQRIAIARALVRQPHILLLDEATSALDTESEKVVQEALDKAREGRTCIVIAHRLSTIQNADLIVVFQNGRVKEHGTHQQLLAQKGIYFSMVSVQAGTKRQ

efflux ratio at 1 h, 1 μM (BCRP): 1.2
efflux ratio at 1 h, 1 μM (MDR1): 5.7
Compound: CC(C)NCC(O)COc1cccc2[nH]ccc12 (centres unmarked) [Pindolol]
Kp,uu,CSF Human ([1]; *4 ref Friden et al. (21)): 0.52
Kp,uu,CSF Rat ([2]; *4 ref Friden et al. (21)): 0.11
Kp,uu,brain Rat ([2]; *4 ref Friden et al. (21)): 0.500

Kp uu at 6 h (in vivo [3]; Kp,uu,CSF Monkey): 0.289
Kp uu at 6 h (in vivo [3]; Kp,uu,brain Monkey): 0.253
efflux ratio at 1 h, 1 μM (BCRP): 18
efflux ratio at 1 h, 1 μM (MDR1): 52
Compound: COc1cc2nc(N3CCN(C(=O)c4ccco4)CC3)nc(N)c2cc1OC [Prazosin]

efflux ratio at 1 h, 1 μM (BCRP): 1
Compound: CC(C)NCC(O)COc1cccc2ccccc12 (centres unmarked) [Propranolol]
Kp,uu,CSF Human ([1]; *4 ref Friden et al. (21)): 0.42
Kp,uu,CSF Rat ([2]; *4 ref Friden et al. (21)): 0.49
Kp,uu,CSF Monkey ([4]; *9 ref Nagaya et al. (19)): 0.461
Kp,uu,brain Monkey ([4]; *9 ref Nagaya et al. (19)): 0.947

Kp uu (in vivo [5]; Kp,uu,CSF Rat): 0.419
Kp uu (in vivo [5]; Kp,uu,brain Rat): 0.0359
efflux ratio at 1 h, 1 μM (BCRP): 0.9
Compound: C=C[C@H]1C[N@@]2CC[C@H]1C[C@@H]2[C@@H](O)c1ccnc2ccc(OC)cc12 [Quinidine]
Kp,uu,CSF Rat ([2]; *7 ref Kodaira et al. (20)): 0.0911
Kp,uu,brain Rat ([2]; *7 ref Kodaira et al. (20)): 0.026
Kp,uu,brain Monkey ([4]; *8 ref Uchida et al. (31)): 0.0744
Kp,uu,CSF Monkey ([4]; *9 ref Nagaya et al. (19)): 0.169
Kp,uu,brain Monkey ([4]; *9 ref Nagaya et al. (19)): 0.0658

efflux ratio at 1 h, 1 μM (BCRP): 1.2
efflux ratio at 1 h, 1 μM (MDR1): 0.5
Compound: CN[C@H]1CC[C@@H](c2ccc(Cl)c(Cl)c2)c2ccccc21 [Sertraline]

Kp,uu,CSF Monkey (in vivo [3]; monkey, lumbar CSF, *1 data internally obtained): 0.0798
Kp,uu,brain Monkey (in vivo [3]; monkey, *1 data internally obtained): 0.0199
Kp,uu,CSF Rat (in vivo [5]): 2.06
Kp,uu,brain Rat (in vivo [5]): 0.0228
Compound: CNC(=O)c1cc(Oc2ccc(NC(=O)Nc3ccc(Cl)c(C(F)(F)F)c3)cc2)ccn1 [Sorafenib]

efflux ratio at 1 h, 1 μM (BCRP): 1.1
efflux ratio at 1 h, 1 μM (MDR1): 1
Compound: Nc1c2c(nc3ccccc13)CCCC2 [Tacrine]
Kp,uu,CSF Human ([1]; in vivo): 0.74
Kp,uu,CSF Rat ([2]; in vivo): 0.67

efflux ratio at 1 h, 1 μM (BCRP): 0.7
efflux ratio at 1 h, 1 μM (MDR1): 25
Compound: CC1(C)O[C@@H]2[C@@H](CO[C@@]3(COS(N)(=O)=O)OC(C)(C)O[C@@H]23)O1 [Topiramate]
Kp,uu,CSF Human ([1]; *4 ref Friden et al. (21)): 1
Kp,uu,CSF Rat ([2]; *4 ref Friden et al. (21)): 0.63
Kp,uu,brain Rat ([2]; *4 ref Friden et al. (21)): 0.330

Compound: COc1ccc(C(CN(C)C)C2(O)CCCCC2)cc1 (centres unmarked) [Venlafaxine]
efflux ratio at 1 h, 1 μM (BCRP): 0.7
efflux ratio at 1 h, 1 μM (MDR1): 7.6
Kp,uu,brain Human ([1]; *3 ref Summerfield et al. (25)): 0.86
Kp,uu,brain Rat ([2]; *3 ref Summerfield et al. (25)): 1.074
